Experiments:
[1] = SRB cell cytotoxicity assay; type: cell-based, Homo sapiens; settings: human, DU-145 prostate cancer cells; DU-145; Supplementary Figure S7; read-out: cytotoxic concentration in vitro (IC50)
Protocol: (§1) The antiproliferative effects of 1, the chemopreventive control 2, and the positive control paclitaxel were measured using a sulforhodamine B (SRB) cytotoxicity assay. Briefly, DU-145 prostate cancer cells (5 × 10^4 cells/well) were seeded in a 96-well plate overnight. Then, the cells were treated at different concentrations ranging from 0 to 150 μM with each test compound for 24, 48, and 72 h (Supplementary Figure S7). After being treated, the cells were incubated with cold trichloroacetic acid (20%, 30 min), washed with tap water, stained with SRB (0.4%, 30 min), and washed subsequently with acetic acid (1%). Finally, the unbound dye was solubilized using 200 μL of Tris-base (10 mM) and the absorbance read at 515 nm using a FLUOstar Optima microplate reader (BMG Labtech Inc., Durham, NC, USA). The percent inhibition was determined by using the formula provided in the prior publication.

[2] = system: DU-145 prostate cancer cells; assay: SRB cell cytotoxicity assay; type: cell-based, Homo sapiens; settings: DU-145 human prostate cancer cells
Protocol: as §1

[3] = system: DU-145 prostate cancer cells; assay: Cell viability crystal violet assay; type: cell-based, Homo sapiens; settings: rocaglamide at concentrations higher than 6 μM
Protocol: The cell viability of DU-145 prostate cancer cells was evaluated after treatment with 1, 2, and the positive control rocaglamide using the protocol from a Phospho-NF-kappaBp65 (S468 + S536) and Total In-Cell ELISA Kit (ab207482) (Abcam Inc., Waltham, MA, USA), after initial PhosphoNF-κBp65 translocation steps (Section 4.11).

[4] = system: Hepa1c1c7 mouse hepatoma cells; assay: Cell oxidative stress real-time dose–response assay (ROS, DCFH-DA); type: cell-based
Protocol: A reactive oxygen species (ROS) assay was performed following a previously described procedure. The generated intracellular levels of ROS were measured using the fluorescent probe 2′,7′-dichlorodihydrofluorescein diacetate (DCFH-DA). Hepa1c1c7 mouse hepatoma cells were seeded in a 96-well plate, treated with 1, 2, or the positive control rocaglamide, followed by 5 h incubation at 37 °C with 5% CO2. Subsequently, cells were incubated with H2O2 (1.25 mM) and FeSO4 for 30 min at 37 °C. Later, the fluorescent probe DCFH-DA was added to determine intracellular ROS. Fluorescence was measured using a FLUOstar Optima fluorescence plate reader (BMG Labtech Inc., Durham, NC, USA) at an excitation wavelength of 485 nm and emission wavelength of 530 nm. All treatments performed in triplicate were representative of at least two different experiments.

[5] = system: phosphoNF-κBp65 in DU-145 prostate cancer cells; assay: PhosphoNF-κBp65 assay (In-Cell ELISA); type: cell-based, Homo sapiens
Protocol: PhosphoNF-κBP65 phosphorylation levels were evaluated using the protocol from an Abcam Phospho-NF-kappaBp65 ([…] + […]) + Total In-Cell ELISA Kit (ab207482) (Abcam Inc., Waltham, MA, USA). The effects of 1, the natural product chemopreventive positive control 2, and a rocaglamide positive control in the PhosphoNF-κBp65 assay activity were measured using a FLUOstar Optima plate reader. DU-145 or Hepa1c1c7 cells (5 × 10^4 cells/well) were seeded in a white 96-well plate and treated (0-150 μM) for 5 h. Afterwards, luminescence was measured using a FLUOstar Optima plate reader.

zebrafish (Danio rerio) = assay: Toxicity assay in zebrafish; settings: for morphological changes / developmental abnormalities: tamoxifen 50 μM at 48 h, 1 100 μM at 48 h, 2 100 μM at 24 h
Protocol: Animals were provided by the Department of Neuroscience at The Ohio State University (OSU) (OSU IACUC-approved animal protocol number 2014A00000006-R1-AR1). Zebrafish embryos were housed in aquaculture water at 28 °C with a 14 h/10 h light/dark cycle. After 24 h post fertilization (hpf), groups of random embryos were exposed to different concentrations (0, 50, or 100 μM, n = 25) for 24 and 48 h. Then, images of the zebrafish were taken using an Axiovert 40 CFL Zeiss microscope and ProgRes C10 plus camera. Morphological changes in zebrafish development were determined and recorded.

[6] = system: HT-29 human colon cancer cells; settings: nanomolar range; cited from earlier work

C/C=C/c1cc(OC)c2c(c1)[C@H](C)[C@@H](c1ccc(O)c(OC)c1)O2 [compound 1, licarin A]
IC50 [1]: 100 µM | growth inhibitory activity [2]: did not produce any discernible growth inhibitory activity | cell viability (crystal violet) [3]: remained alive and proliferated, but in a controlled manner | effective concentration for oxidative control ([4]; Hepa1c1c7): 48 nM | effective concentration for inducing NF-κB phosphorylation [5]: 9.6 nM | % survival (zebrafish (Danio rerio); 48 h exposure, tamoxifen 50 μM, 1 and 2 100 μM, mean ± SEM): 100% | morphological changes / developmental abnormalities (zebrafish (Danio rerio)): lack of morphological changes

O=C(/C=C/c1ccc(O)cc1)c1ccc(O)cc1O [compound 2, Isoliquiritigenin, reference compound]
duration of reduction in cellular stress (time until activity degrades) ([4]; 48 nM, assay duration 60 min): 30 min | % of hatching (zebrafish (Danio rerio); 24 h exposure, tamoxifen 50 μM, 1 and 2 100 μM, mean ± SEM): 100% | morphological changes / developmental abnormalities (zebrafish (Danio rerio)): curved spines or shortened tails

COc1ccc([C@@]23Oc4cc(OC)cc(OC)c4[C@]2(O)[C@H](O)[C@H](C(=O)N(C)C)[C@H]3c2ccccc2)cc1 [Rocaglamide, reference compound]
cell viability (crystal violet) [3]: maintained the same level of cell viability

C/C=C/c1cc(OC)c2c(c1)[C@@H](C)[C@H](c1cc(OC)c(OC)c(OC)c1)O2 [licarin C]
cytotoxicity [6]: potently cytotoxic

Reference: PMC11510329, “Molecular Networking, Docking, and Biological Evaluation of Licarin A from Myristica fragrans as a Potential Cancer Chemopreventive Agent” (Molecules, 2024)
